Reference: US8337835B2, “Use of an endogenous ligand for peroxisome proliferator activated receptor alpha to treat liver disorders” (priority 2009, dated 2012)

Key:
[1] = test system: PPARα target gene (ACO and CPT-1) expression; test: PPARα target gene (ACO and CPT-1) expression by quantitative RT-PCR in Hepa 1-6 cells; format: cell-based; settings: Hepa 1-6 mouse hepatoma cells, 24 h, serum-free DMEM
Experimental: RT-PCR gene expression analysis and binding assays were employed to address this objective. Wy14,643, 16:0/18:1-GPC, and 18:1/16:0-GPC on PPARα target gene (ACO and CPT-1) expression was measured by quantitative RT-PCR in Hepa 1-6 cells treated for 24 h as in FIG. 6A. Results are mean±SEM of 9 separate experiments. *, P<0.05 compared to control (Ctrl, 80% PBS/20% DMSO).
The C57BL/6 mouse hepatoma cell line Hepa 1-6 (ATCC, CRL-1830) was expanded in DMEM with 10% fetal bovine serum. For experiments, cells were cultured to 50-60% confluence, washed twice with PBS, and the medium was changed to serum-free DMEM supplemented with the various types and concentrations of phosphatidylcholine (sonicated to homogeneity in PBS/1% ethanol/4% fatty acid-free BSA), Wy14,643 (dissolved in 80% PBS/20% DMSO), or vehicle-only solutions. 24 h later, cells were washed, RNA prepared, and ACO and CPT-1 expression levels were determined by quantitative RT-PCR (see FIG. 6). For siRNA experiments, 50-60% confluent cells were treated with siRNAs or their scrambled controls (all diluted in PBS) for 72 h. Following the 72 h siRNA treatment, another set of cells received 16:0/18:1-GPC (using a concentration based on dose-response experiments) for an additional 24 h. Stealth™ siRNA oligonucleotides were used to inhibit the gene expression of mouse ChPT1 ([…]) (SEQ ID NO: 1) and CEPT1 ([…]) (SEQ ID NO: 2) were from Invitrogen (Carlsbad, Calif.).
Total RNA was extracted from Hepa 1-6 cells and liver using Trizol (Invitrogen) and treated with DNase I (RNase-free, Roche Molecular Biochemicals). Reverse transcription to cDNA and real-time quantitative PCR were performed using previously published procedures and primer-probe sequences for ACO and CPT-1 (Chakravarthy et al., 2005). […] Relative mRNA levels were calculated using both the comparative CT and standard curve methods normalized to ribosomal protein L32, an invariant internal control. […]

[2] = biological target: T1, PPARα ligand binding domain (LBD) (Homo sapiens, UniProt Q07869); test: ALPHASCREEN binding assay, PPARα ligand binding domain
T1 construct: 6xHis; made in house
T1 sequence (Q07869 239-466 limits assumed): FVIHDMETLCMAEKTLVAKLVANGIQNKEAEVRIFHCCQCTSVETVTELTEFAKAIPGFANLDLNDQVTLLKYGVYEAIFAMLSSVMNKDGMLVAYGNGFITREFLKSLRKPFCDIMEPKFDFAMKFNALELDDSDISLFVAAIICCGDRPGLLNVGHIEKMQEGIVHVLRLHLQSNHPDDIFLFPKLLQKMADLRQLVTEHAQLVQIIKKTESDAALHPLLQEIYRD
Experimental: (§1) Binding of 16:0/18:1-GPC and known agonists to the ligand binding domain (LBD) of PPARα in the presence of various peptide motifs was determined by ALPHASCREEN™ assay (Proc Natl Acad Sci USA 105, pp. 5034-5039, 2008). Experiments used 100 nM receptor LBD, purified as 6× His tag fusion proteins (Mol Cell 17, pp. 491-502, 2005), and 20 nM of N-terminal biotinylated CBP1 peptide or other coactivator peptides in the presence of 5 μg/ml donor and acceptor beads in 50 mM MOPS (pH 7.4), 100 mM NaCl, and 0.1 mg/ml BSA for 90 min at 25° C. Signals were generated in the absence or the presence of ligand. Identical experiments were performed using the PPARδ and PPARγ LBDs.
(§2) Stealth™ siRNA oligonucleotides were used to inhibit the gene expression of mouse ChPT1 ([…]) (SEQ ID NO: 1) and CEPT1 ([…]) (SEQ ID NO: 2) were from Invitrogen (Carlsbad, Calif.). […] Expression of ACO and CPT-1 was also assessed 24 h after addition of 50 μM 16:0/18:1-GPC in a subset of Hepa 1-6 cells previously treated with CEPT1 siRNA. mRNA levels are normalized to control L32 ribosomal mRNA. […] FIGS. 6F-H show the binding of various peptide motifs to the purified PPARα (FIG. 6F), PPARδ (FIG. 6G), and PPARγ (FIG. 6H) LBD in the presence of 5 μM of the corresponding PPAR agonist or 16:0/18:1-GPC as measured by AlphaScreen assays. […]

PPARδ LBD = biological target: T2, PPARδ LBD (Homo sapiens, UniProt Q03181); test: ALPHASCREEN binding assay, PPARδ ligand binding domain; settings: 5 μM; compared with PPARδ activator GW0742
T2 construct: Identical experiments were performed using the PPARδ and PPARγ LBDs; 6xHis; made in house
T2 sequence (Q03181 211-439 limits assumed): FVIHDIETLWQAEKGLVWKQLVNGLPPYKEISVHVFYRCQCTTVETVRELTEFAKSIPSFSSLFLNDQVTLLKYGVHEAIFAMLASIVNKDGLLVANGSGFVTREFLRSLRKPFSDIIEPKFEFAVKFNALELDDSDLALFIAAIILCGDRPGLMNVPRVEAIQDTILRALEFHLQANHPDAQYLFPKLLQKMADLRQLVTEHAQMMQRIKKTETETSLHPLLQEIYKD
Experimental: as §1, §2

With `CCCCCCCC/C=C\CCCCCCCC(=O)O[C@H](COC(=O)CCCCCCCCCCCCCCC)COP(=O)([O-])OCC[N+](C)(C)C` [16:0/18:1-GPC, 1-palmitoyl-2-oleoyl-sn-glycerol-3-phosphocholine] the “expression of PPARα-dependent genes ACO and CPT-I” value [1] was “induces PPARα-dependent gene expression”, the “expression of PPARα-dependent genes ACO and CPT-I” value ([1]; listed as 1-palmitoyl-2-oleoyl-sn-glycerol-3-phosphocholine) was “increased expression of both ACO and CPT-I to a similar degree as equimolar amounts of the known PPARα activator Wy14,643” and the “binding affinity to PPARα compared with Wy14,643” value [2] was “binds with sufficient affinity to PPARα comparable to Wy14,643”. The “interaction with PPARδ” value (PPARδ LBD) was “insubstantial”.
